From patent US9040673B2, “Synthesis and identification of novel RSK-specific inhibitors” (University of Virginia Patent Foundation, priority 2009, dated 2015)

Tests used:
p140, a RSK substrate [1] = experiment: PDB-induced p140 phosphorylation in MCF-7 cells (immunoblot); type: cell-based, human; settings: 100 μM, 3 hr pre-incubation, 500 nM PDB 30 min
Method: (§1) To determine whether SL0101-1 inhibits RSK in intact cells, phosphorylation of p140, a RSK substrate of unknown function, was examined in a human breast cancer cell line, MCF-7. MCF-7 and MCF-10A cells were pre-incubated with vehicle, 50 μM U0126 or the indicated concentration of SL0101-1 for 3 hr (FIG. 8D). Cells were treated with 500 nM PDB for 30 min prior to lysis. Protein concentration of lysates was measured and lysates were electrophoresed, transferred and immunoblotted. […] Pre-incubation of cells with 100 μM SL0101-1 abrogates phorbol dibutyrate (PDB)-induced p140 phosphorylation as does 50 μM U0126, a MEK inhibitor.
(§2) Cell Culture. For proliferation studies cells were seeded at 2500 to 5000 cells per well in 96 well tissue culture plates in the appropriate medium as described by American Type Culture Collection. After 24 hr, the medium was replaced with medium containing compound or vehicle as indicated. Cell viability was measured at indicated time points using CellTiter-Glo™ assay reagent (Promega) according to manufacturer's protocol. For in vivo inhibition studies, cells were seeded at 2.5×10^5 cells/well in 12 well cell culture clusters. After 24 hr, the cells were serum starved for 24 hr then incubated with compound or vehicle for 3 hr prior to a 30 min PDB stimulation. Cells were lysed as previously described (J. Biol. Chem. 273, 13317-13323 (1998)). […]

p140, a RSK substrate [2] = experiment: p140 phosphorylation in LNCaP line (anti-RPM antibody); type: cell-based, human
Method: The ability of SL0101-1 to inhibit the proliferation of the androgen-dependent human prostate line, LNCaP was tested. […] To investigate the RSK signal transduction pathway in the LNCaP line, a phosphospecific antibody to a RSK phosphorylation motif (RPM) was produced. Only a few downstream effectors of RSK have been identified and therefore, applicants anticipated that an anti-RPM antibody would be a very effective tool for identifying novel RSK substrates in vivo. An anti-RPM antibody has previously been reported that recognizes the RSK substrate, p140, a protein of unknown function. […] All lysates were normalized to each other using an anti-Ran antibody. Ran is used for normalization based on the observations that it is a general housekeeping protein, the activity or expression levels of which are not known to vary in any disease state.

Y. pseudotuberculosis = type: cell-based, Yersinia pseudotuberculosis; settings: 60 μM, liquid LB medium
[3] = system: human umbilical vein endothelial cells (HUVEC); experiment: HUVEC wound migration assay; type: cell-based; settings: 60 μM, 1 hr prior to wounding; up to 20 hr
Excerpt: In these experiments, HUVEC were cells were subcultured to confluence in 35-mm plates. […] Scratches were made in the monolayer of cells using sterile, disposable micropipette tips. Images were captured—2 hr, 10 hr, and 20 hr after wounding. By 10 hr after wounding, the vehicle-treated cells at the wound edge have migrated toward the wound. Gaps in the monolayer behind the wound edge are apparent. The SL0101-treated cells have recovered from the wounding, however they show little signs of polarization toward the wound and no involvement of the cells behind the wound edge. At 20 hr, the vehicle-treated cells have migrated into the wound yet the gaps are still present behind the wound edge. The cells at the wound edge in the SL0101-treated well appear to have increased in size to fill the wound rather than migrate into the wound and the monolayered cells behind the wound edge remain tightly packed unlike the vehicle-treated cells. Accordingly the data support the premise that RSK inhibitors are useful tools to stop endothelial cell migration.

CaLu-1 cells = experiment: CaLu-1 wound migration assay; type: cell-based, human; settings: 60 μM, 24 hr after wounding
Method: CaLu-1 cells were sub-cultured to confluence in 35-mm plates. […] Scratches were made in the monolayer of cells using sterile, disposable micropipette tips. Images were captured either immediately following the wounding, 6 hr, or 24 hours after wounding. At the point of wounding, the cells at the wound edge show increased light refraction indicating damage. By 6 hr after wounding, the vehicle-treated cells at the wound edge present wide lamella (indicated by arrows) extending toward the direction of the wound. […] At 24 hr, the vehicle-treated cells have migrated into the wound and are enlarged to re-form the confluent monolayer.

[4] = system: pp 140, a known RSK substrate; experiment: pp 140 phosphorylation in HUVEC cells; type: cell-based, human; settings: 60 μM, 2 hr; with or without 500 nM phorbol dibutyrate
Method: HUVEC cells were seeded at a density of 3×10^5 cells per 35 mm dish and were maintained in complete growth medium. […] The cells were harvested and lysates prepared for SDS-PAGE and immunoblot analysis. The phosphorylation state of pp 140 was determined using a phosphospecific antibody generated against the phosphorylated peptide—LAS(P)TND.

[5] = system: NIH/3T3 parental cell line; experiment: proliferation of parental NIH/3T3 cell line; type: cell-based
Excerpt: The importance of MAPK to proliferation and oncogenesis is well established. However, the role that RSK plays in these processes has not been examined. […] SL0101-1 produced striking morphology changes in the transformed cells but not in the parental cell line. The vehicle control treated Ha-Ras transformed cells were elongated whereas in response to SL0101-1 the cells became much larger and flatter, appearing more like the parental cells, or like Ha-Ras transformed cells treated with U0126.
as §2, with “(1998)). The lysates were normalized for total protein, electrophoresed and immunoblotted.” for “(1998)).”

VCAM = experiment: LPS-induced VCAM expression in HUVEC cells; type: cell-based, human; settings: 1 μg/ml LPS, 24 hours
Excerpt: Twenty-four hours after LPS treatment, the cells were harvested with SDS lysis buffer in preparation for SDS-PAGE and immunoblot analysis. Lysates were normalized with regard to protein concentration. Equivalent loading was confirmed by use of an anti-Ran immunoblot.

MCF-10A cells = experiment: MCF-10A cell proliferation; type: cell-based, human; settings: 50 μM (FIG. 8A)
Method: The cell number was measured after 48 h of treatment. Values given are the fold proliferation as a percentage of that observed with vehicle-treated cells. Points, mean (n=2 in quadruplicate); bars=SD.
FIGS. 8A-8D SL0101-1 inhibits the proliferation of cancer cells but not normal cells. […] Cell viability was measured at indicated time points. Proliferation assays were conducted using CellTiter-Glo Luminescent Cell Viability Assay (Promega), performed 44 hrs after treatment for FIGS. 8A &B and at indicated points for FIG. 8C. The data are expressed relative to time 0.
Cell Culture. For proliferation studies cells were seeded at 2500 to 5000 cells per well in 96 well tissue culture plates in the appropriate medium as described by American Type Culture Collection. After 24 hr, the medium was replaced with medium containing compound or vehicle as indicated. Cell viability was measured at indicated time points using CellTiter-Glo™ assay reagent (Promega) according to manufacturer's protocol. For in vivo inhibition studies, cells were seeded at 2.5×10^5 cells/well in 12 well cell culture clusters. After 24 hr, the cells were serum starved for 24 hr then incubated with compound or vehicle for 3 hr prior to a 30 min PDB stimulation. Cells were lysed as previously described (J. Biol. Chem. 273, 13317-13323 (1998)). The lysates were normalized for total protein, electrophoresed and immunoblotted. For cell imaging, Ha-Ras-transformed NIH/3T3 cells were seeded on LABTEK II chamber slides (Nalge) at a density of 1×10^4 cells/well. After 24 hr, fresh medium was added the indicated compounds or vehicle. Images were taken 48 hr after treatment at a magnification of 20×.

MAPK, MEK, Raf and PKC = experiment: effect on upstream kinases of PDB-stimulated RSK phosphorylation in intact cells (immunoblot); type: cell-based, human
Method: as §1, §2

[6] = system: Yersinia pseudotuberculosis; type: cell-based; settings: 60 μM, 4 hours prior to infection (MOI=25)

CC(=O)O[C@@H]1[C@@H](OC(C)=O)[C@@H](O)[C@H](Oc2c(-c3ccc(O)cc3)oc3cc(O)cc(O)c3c2=O)O[C@H]1C [SL0101, kaempferol 3-O-(3″,4″-di-O-acetyl-α-L-rhamnopyranoside)]
PDB-induced p140 phosphorylation (p140, a RSK substrate [1]): abrogates
phosphorylation of p140 (p140, a RSK substrate [2]): decrease the phosphorylation of p140
direct effect on growth of Y. pseudotuberculosis (Y. pseudotuberculosis): does not directly affect the growth
migration of HUVEC into wound [3]: reduce the ability of the cells to migrate
migration of Calu-1 cells into wound (CaLu-1 cells): have not migrated to close the wound
phosphorylation of pp 140 [4]: reduced the phosphorylation of pp 140
proliferation of the parental line [5]: little effect on proliferation
expression of VCAM (VCAM): reduced expression of the angiogenesis marker VCAM in a dose-dependent manner
proliferation of MCF-10A cells (MCF-10A cells): no effect on the growth
phosphorylation of RSK2 (MAPK, MEK, Raf and PKC): does not effect the phosphorylation of RSK2
live bacteria extracted from treated macrophages [6]: fewer live bacteria are extracted
